Laboratory results: patent US20260265304A1, “PEPTIDE INHIBITORS OF FOCAL ADHESION KINASE ACTIVITY AND USES THEREOF” (Arizona Board of Regents on Behalf of the University of …, priority 2019, published 2026)
Where two headings read alike, the source gives them in different places. Values belong to the molecule of their own block, whether it stands above or below them. Positions of bridges follow the written chain, without caps; N, C: chain ends. Non-standard residues stand in square brackets, D forms with d. Residues, ends and D or L forms follow the SMILES beside them. *: point of attachment. Myristoyl = CCCCCCCCCCCCCC(=O)*; R8 = C=CCCCCCC[C@@](C)(N)C(=O)O; S5 = C=CCCC[C@](C)(N)C(=O)O

Columns and labels:
[1] = molecular target: T1, FAK FAT domain (biotinylated Avitag-FAT protein) (Homo sapiens, UniProt Q05397); assay: Surface plasmon resonance (SPR) binding to immobilised FAT protein; settings: two-site binding model
T1 construct: biotinylated Avitag-FAT protein was diluted in running buffer
T1 sequence (Q05397 914-1045 limits assumed): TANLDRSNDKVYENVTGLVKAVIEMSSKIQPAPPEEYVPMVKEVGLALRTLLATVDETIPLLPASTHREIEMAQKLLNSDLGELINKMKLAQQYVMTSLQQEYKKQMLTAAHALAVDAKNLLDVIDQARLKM

trypsin = molecular target: T2, trypsin (Bos taurus, UniProt P00760); assay: In vitro trypsin digest assay (trypsin-agarose beads, LC-MS); type: in vitro ADME; settings: trypsin-agarose beads in physiological buffer, read-out: t1/2 in trypsin digest (protease resistance) (converted)
T2 construct: purchased ThermoFisher
T2 sequence (P00760 24-246): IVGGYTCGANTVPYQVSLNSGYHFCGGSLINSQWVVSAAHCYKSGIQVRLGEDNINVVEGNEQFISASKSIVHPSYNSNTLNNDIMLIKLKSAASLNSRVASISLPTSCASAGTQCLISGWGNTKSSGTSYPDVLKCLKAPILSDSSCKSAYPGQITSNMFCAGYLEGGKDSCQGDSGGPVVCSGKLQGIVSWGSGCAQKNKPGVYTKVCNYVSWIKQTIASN
Method: Assays were performed using trypsin-agarose beads (ThermoFisher) and measurement of peptide concentration using LC-MS. Peptide half-lives were calculated using GraphPad Prism software.
Trypsin-agarose beads were used to test the potential cleavage of peptides in a physiological buffer and LC-MS was used as the analytical method to determine peptide concentration.

[2] = test system: SK-MEL-103 melanoma cells; assay: 3D Matrigel-on-top proliferation assay; type: cell-based
Method: (§1) B. Competition FP experiment with 1907 showing inhibition of TAMRA-LD2 binding to FAT. C. SPR binding and selectivity analysis using WT FAT and Mutant FAT (L994E, 1936A) at the helix-protein interface. D. Flow cytometry analysis of Rhodamine-1907 (10 μM) cellular uptake in MDA-MB-453 breast cancer cells. E. Boyden-chamber invasion assays in SK-MEL-103 melanoma cells. F. 3D Matrigel-on-top proliferation assays in SK-MEL-103 melanoma cells.
B. 3D structure of negative control molecule (UACC-2020). C. 3D Matrigel-on-top cell proliferation data of stapled peptides in SK-MEL-103 melanoma cells.
A negative control myristoylated peptide (2020) was designed and synthesized based on non-active molecule 2014. Experiments were conducted to test the efficacy of these peptides in 3D proliferation assays using SK-MEL-103 melanoma cells. […] Furthermore, 2012 had no effects on the proliferation of normal HUVEC cells (IC50=NA) (FIG. 7).

[3] = test system: SK-MEL-103 melanoma cells; assay: Boyden-chamber invasion assay; type: cell-based; settings: SK-MEL-103, compared to Defactinib relative to compound KD
Method: as §1
(§2) To further evaluate the activity of 1907, experiments were conducted that tested the peptide in a flow cytometry-based cell permeability assay. […] Experiments were also conducted to test the cellular efficacy in SK-MEL-103 melanoma cells.

[4] = molecular target: T3, FAK FAT domain (paxillin-FAT binding) (Homo sapiens, UniProt Q05397); assay: Competition fluorescence polarization (FP) assay, inhibition of TAMRA-LD2 binding to FAT; settings: read-out: FP Ki
T3 construct: FP Buffer containing 20 μM FAT and 0.1 μM TAMRA-LD2
T3 sequence (Q05397 914-1045 limits assumed): T1 sequence (Q05397 914-1045 limits assumed)
Method: The FP assay buffer used was 20 mM Tris, 200 mM NaCl, 0.05% β-me, 0.1% Triton X-100, 5% glycerol, and 1× Halt protease inhibitor cocktail. […] Bodipy TMR FP optical module (2100-4100) was used as the mirror.
Wells with no FAT were used as a baseline value which was subtracted from the raw values to produce ΔmP values. The plate was read at every hour for four hours to test for time differences in IC50. The titration data was processed through GraphPad Prism to produce a dose response curve and a calculated IC50 with standard error (SE). A four-parameter dose-response inhibition model was utilized and the bottom fit was constrained to the lower plateau of the curve. Ki was determined from the following calculation:
P0 is the concentration of free protein and KD is calculated from the saturation curve. 150 is calculated by the following equation:
where PT is the total protein concentration, LT is the total labeled-ligand concentration, P0 is the positive root of P0^2+(KD+LT)*P0−PT, PL0=P−P0, PL50=PL0/2, L0=LT-PL0, and L50=LT-PL50.

[5] = molecular target: T1, FAK FAT domain (biotinylated Avitag-FAT protein); assay: Surface plasmon resonance (SPR) binding to immobilised FAT protein; settings: FAT protein immobilised, peptide 200 μM-0.01 μM, 1:1 binding model; read-out: SPR KD
Method: SPR binding studies were performed on a ForteBio Pioneer FE SPR system. In brief, a SADH Streptavidin in Dextran Hydrogel biosensor (ForteBio) was docked onto the flow cell and preconditioned with two injections of 10 mM NaOH, 1 M NaCl for 1 min at 50 μL/min. […] Empty channel 2 served as the reference control. After achieving a stable baseline, a concentration series (200 μM-0.01 μM) of peptide was prepared in final running buffer (100 mM Tris-HCl, 200 mM NaCl, 0.05% Tween-20, 5% DMSO) and injected using the OneStep gradient injection method at a flow rate of 75 μL/min. […] Raw SPR data were appropriately processed in Qdat software (ForteBio) by normalizing the baseline prior to injection, aligning the channels, subtraction of the reference channel, and blank subtraction. Kinetic data were fitted to a pseudo-first order 1:1 interaction binding model using to calculate KD. In addition, a steady-state model and Req data points were used to validate the binding affinity. Visual inspection of the SPR sensograms was performed to verify appropriate model fitting, lack of mass transport effects, return to baseline, and lack of irregular kinetics.

[6] = test system: MDA-MB-453 breast cancer cells; assay: Flow cytometry-based cell permeability assay; settings: MDA-MB-453 cells, 10 μM, compared to Rhodamine only control
Method: as §1, §2
Flow cytometry assays performed on the Canto II flow cytometer (BD Biosciences) were utilized to measure cellular uptake of TAMRA-tagged peptides. In brief, the instrument was properly gated using cells treated with TAMRA-only as a positive control. Also, cells treated with untagged peptide were used as a negative control to rule out non-specific signal. Cells were treated with TAMRA-tagged peptides for a duration of 2 h-48 h to measure cellular uptake. Permeability of peptide was reported as % positivity relative to TAMRA positive control and mean fluorescence intensity (MFI).

[7] = molecular target: T4, biotinylated Avitag-FAT protein (UniProt Q05397 919-1052, limits assumed, biotinylated (Avitag)); assay: SPR, biotinylated Avitag-FAT immobilised
T4 construct: domain: FAT; Immobilised on a streptavidin sensor for SPR; also called WT FAT; FAT domain of FAK; not shown: Avitag
T4 sequence (looked up): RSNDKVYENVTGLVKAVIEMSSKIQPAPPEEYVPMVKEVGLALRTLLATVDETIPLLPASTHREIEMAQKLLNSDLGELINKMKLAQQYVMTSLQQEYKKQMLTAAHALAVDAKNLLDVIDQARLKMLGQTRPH
Method: SPR binding studies were performed on a ForteBio Pioneer FE SPR system. In brief, a SADH Streptavidin in Dextran Hydrogel biosensor (ForteBio) was docked onto the flow cell and preconditioned with two injections of 10 mM NaOH, 1 M NaCl for 1 min at 50 μL/min. […] Empty channel 2 served as the reference control. After achieving a stable baseline, a concentration series (200 μM-0.01 μM) of peptide was prepared in final running buffer (100 mM Tris-HCl, 200 mM NaCl, 0.05% Tween-20, 5% DMSO) and injected using the OneStep gradient injection method at a flow rate of 75 μL/min. 3% sucrose was utilized as a bulk standard control for OneStep injection and a DMSO calibration curve was performed using a concentration range of 3.5% to 6.5% DMSO. Raw SPR data were appropriately processed in Qdat software (ForteBio) by normalizing the baseline prior to injection, aligning the channels, subtraction of the reference channel, and blank subtraction. Kinetic data were fitted to a pseudo-first order 1:1 interaction binding model using to calculate KD. In addition, a steady-state model and Req data points were used to validate the binding affinity. Visual inspection of the SPR sensograms was performed to verify appropriate model fitting, lack of mass transport effects, return to baseline, and lack of irregular kinetics.

[8] = SK-MEL-103 melanoma cells, 3D Matrigel-on-top

Molecule: CC(=O)N[C@@H](CC(N)=O)C(=O)N[C@@H](CC(C)C)C(=O)N[C@]1(C)CCCCCCC=CCCC[C@@](C)(C(=O)N[C@@H](CCC(=O)O)C(=O)N[C@@H](CC(C)C)C(=O)N[C@@H](CC(N)=O)C(N)=O)NC(=O)[C@H](CC(C)C)NC(=O)[C@H](CC(C)C)NC(=O)[C@H](CCCCN)NC(=O)[C@H](CC(=O)O)NC(=O)[C@H](CC(C)C)NC(=O)[C@H](CCC(=O)O)NC1=O [Peptide 2028, Ac-NLR8ELDKLLS5ELN-NH2] (Ac-NL[R8]ELDKLL[S5]ELN-NH2; staple 3-10)
Kd ([1]; SPR KD (1), site (1)): 1.36 µM | Kd ([1]; read-out: SPR KD (2), site (2)): 10.9 µM

Molecule: CC(=O)N[C@@H](CC(N)=O)C(=O)N[C@@H](CC(C)C)C(=O)N[C@]1(C)CCCCCC/C=C/CCC[C@@](C)(C(=O)N[C@@H](CCC(=O)O)C(=O)N[C@@H](CC(C)C)C(=O)N[C@@H](CC(N)=O)C(N)=O)NC(=O)[C@H](CC(C)C)NC(=O)[C@H](CC(C)C)NC(=O)[C@H](CCCNC(=N)N)NC(=O)[C@H](CC(=O)O)NC(=O)[C@H](CC(C)C)NC(=O)[C@H](CCC(=O)O)NC1=O [Peptide 1907, Ac-NLR8ELDRLLS5ELN-NH2]
inhibition of 3D proliferation ([2]; SK-MEL-103, compared to Defactinib relative to compound KD): effectively inhibited | IC50 [2, 8]: 60 µM | half-life (trypsin): 15.7 h | inhibition of invasion [3]: effectively inhibited

Molecule: CCN(CC)c1ccc2c(-c3ccccc3C(=O)NCCC(=O)N[C@@H](CC(N)=O)C(=O)N[C@@H](CC(C)C)C(=O)N[C@]3(C)CCCCCCC=CCCC[C@@](C)(C(=O)N[C@@H](CCC(=O)O)C(=O)N[C@@H](CC(C)C)C(=O)N[C@@H](CC(N)=O)C(N)=O)NC(=O)[C@H](CC(C)C)NC(=O)[C@H](CC(C)C)NC(=O)[C@H](CCCNC(=N)N)NC(=O)[C@H](CC(=O)O)NC(=O)[C@H](CC(C)C)NC(=O)[C@H](CCC(=O)O)NC3=O)c3ccc(=[N+](CC)CC)cc-3oc2c1 [Peptide 2016, RhoB-1907]
cellular uptake / crossing of the cell membrane [6]: successfully crossed the cell membrane

B2: 2011 (peptide)
peptide: Ac-[R8]ELDRLL[S5]-NH2
modifications: staple 1-8
Kd [7]: > 200 µM

The next lines start with results.

half-life (trypsin): 0.69 h
Molecule: CC(=O)N[C@@H](CC(N)=O)C(=O)N[C@@H](CC(C)C)C(=O)N[C@@H](CO)C(=O)N[C@@H](CCC(=O)O)C(=O)N[C@@H](CC(C)C)C(=O)N[C@@H](CC(=O)O)C(=O)N[C@@H](CCCNC(=N)N)C(=O)N[C@@H](CC(C)C)C(=O)N[C@@H](CC(C)C)C(=O)N[C@@H](CC(C)C)C(=O)N[C@@H](CCC(=O)O)C(=O)N[C@@H](CC(C)C)C(=O)N[C@@H](CC(N)=O)C(N)=O [Peptide 1967, reference compound]

Kd [5]: > 200 µM | 3D proliferation IC50 [2, 8]: no effect
Molecule: CCCCCCCCCCCCCC(=O)N[C@@H](CC(N)=O)C(=O)N[C@@H](CC(C)C)C(=O)N[C@]1(C)CCCCCCC=CCCC[C@@](C)(C(=O)N[C@@H](CCC(=O)O)C(=O)N[C@@H](CCC(=O)O)C(=O)N[C@@H](CC(N)=O)C(N)=O)NC(=O)[C@H](CC(C)C)NC(=O)[C@H](CC(C)C)NC(=O)[C@H](CCCNC(=N)N)NC(=O)[C@H](CC(=O)O)NC(=O)[C@H](CCC(=O)O)NC(=O)[C@H](CCC(=O)O)NC1=O [Peptide 2020, Myristoyl-NLR8EEDRLLS5EEN-NH2] (Myristoyl-NL[R8]EEDRLL[S5]EEN-NH2; staple 3-10)
Ki [4]: > 1250 µM

Kd [7]: > 200 µM
B1: 2014 (peptide)
peptide: Ac-NL[R8]EEDRLL[S5]EEN-NH2
modifications: staple 3-10
SMILES: CC(=O)N[C@@H](CC(N)=O)C(=O)N[C@@H](CC(C)C)C(=O)N[C@]1(C)CCCCCCC=CCCC[C@@](C)(C(=O)N[C@@H](CCC(=O)O)C(=O)N[C@@H](CCC(=O)O)C(=O)N[C@@H](CC(N)=O)C(N)=O)NC(=O)[C@H](CC(C)C)NC(=O)[C@H](CC(C)C)NC(=O)[C@H](CCCNC(=N)N)NC(=O)[C@H](CC(=O)O)NC(=O)[C@H](CCC(=O)O)NC(=O)[C@H](CCC(=O)O)NC1=O
notes: non-active molecule

Kd [7]: 6.95 µM
B3: 1920 (peptide)
peptide: Ac-SLGSNL[R8]ELDRLL[S5]ELNAVQH-NH2
modifications: staple 7-14
SMILES: CC(=O)N[C@@H](CO)C(=O)N[C@@H](CC(C)C)C(=O)NCC(=O)N[C@@H](CO)C(=O)N[C@@H](CC(N)=O)C(=O)N[C@@H](CC(C)C)C(=O)N[C@]1(C)CCCCCCC=CCCC[C@@](C)(C(=O)N[C@@H](CCC(=O)O)C(=O)N[C@@H](CC(C)C)C(=O)N[C@@H](CC(N)=O)C(=O)N[C@@H](C)C(=O)N[C@H](C(=O)N[C@@H](CCC(N)=O)C(=O)N[C@@H](Cc2c[nH]cn2)C(N)=O)C(C)C)NC(=O)[C@H](CC(C)C)NC(=O)[C@H](CC(C)C)NC(=O)[C@H](CCCNC(=N)N)NC(=O)[C@H](CC(=O)O)NC(=O)[C@H](CC(C)C)NC(=O)[C@H](CCC(=O)O)NC1=O
